Laboratory results as given in US10450344B2, “Antibody-binding polypeptide, antibody-binding fusion polypeptide, and adsorption material” (FUJIFILM Corporation, priority 2014, dated 2019).
Square brackets hold non-standard residues; d marks the D form. Peptide text beside a SMILES is read from it. PEG8 = NCCOCCOCCOCCOCCOCCOCCOCCOCCC(=O)O

Legend:
[1] = Evaluation of alkali resistance (1N NaOH, then antibody-binding amount by SPR); assay type: physicochemical
Method: The synthesized polypeptide 1 was immersed in 1N NaOH at room temperature for 1 hour, and then the ligand was immobilized as in the above (1).

[2] = biological target: Bovine Serum Albumin (BSA) (Bos taurus, UniProt P02769); assay: SPR evaluation of selectivity (binding of BSA to immobilized carrier)
Chain of Bovine Serum Albumin (BSA) (P02769 25-607): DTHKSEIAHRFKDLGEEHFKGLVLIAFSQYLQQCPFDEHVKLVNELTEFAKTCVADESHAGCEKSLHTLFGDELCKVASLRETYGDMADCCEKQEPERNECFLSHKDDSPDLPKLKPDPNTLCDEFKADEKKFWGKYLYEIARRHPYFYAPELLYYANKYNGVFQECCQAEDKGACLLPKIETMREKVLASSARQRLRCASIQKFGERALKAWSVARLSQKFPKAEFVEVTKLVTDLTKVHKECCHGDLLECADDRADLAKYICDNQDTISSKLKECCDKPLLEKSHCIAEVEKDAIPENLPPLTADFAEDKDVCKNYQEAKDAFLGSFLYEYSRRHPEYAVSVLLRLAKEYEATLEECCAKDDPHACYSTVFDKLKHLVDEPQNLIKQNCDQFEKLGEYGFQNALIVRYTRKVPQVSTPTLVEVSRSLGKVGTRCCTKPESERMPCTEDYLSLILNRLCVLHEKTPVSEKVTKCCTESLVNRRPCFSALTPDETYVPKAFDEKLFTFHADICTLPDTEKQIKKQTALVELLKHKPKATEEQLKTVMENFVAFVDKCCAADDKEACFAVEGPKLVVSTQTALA
Method: A commercially available CM5 (carboxymethyl dextran introduction type, manufactured by GE Healthcare) sensor chip was set on a surface plasmon resonance (SPR) apparatus Biacore (manufactured by GE Healthcare), HEPES buffer (20 mM HEPES-HCl, 150 mM NaCl, pH 7.4) for SPR was stabilized at a flow rate of 10 μL/min, and 70 μL of a mixed aqueous solution of 0.2 M 1-ethyl-3-(3-dimethylaminopropyl)carbodiimide (EDC, manufactured by Wako Pure Chemical Industries, Ltd.) and 0.04 M N-hydroxysuccinimide (NHS, manufactured by Wako Pure Chemical Industries, Ltd.) was added. Then, 500 μL of a sample solution of polypeptide 1 diluted to 100 μM with the above-mentioned HEPES buffer and treated with a 0.20 μm PTFE filter (manufactured by [sequence]) was supplied to a carrier sample, blocked by an ethanolamine solution, and washed with an aqueous sodium hydroxide solution, followed by immobilization to prepare an immobilized carrier.
1000 nM of Bovine Serum Albumin (BSA, manufactured by Sigma-Aldrich) was added to the immobilized carrier A prepared in the above (1) at 25° C. over 10 min, and the binding amount after 10 minutes in HEPES buffer was measured by SPR.

[3] = Evaluation of temporal stability (solution stored at 40° C. for one month, then antibody-binding amount by SPR)
Method: A solution of the synthesized polypeptide 1 was stored in a constant-temperature zone (40° C.) for one month, and then the ligand was immobilized as in the above (1).

human IgG antibody = assay: SPR evaluation of antibody binding properties of ligand immobilized on CM5 sensor chip; conditions: for dissociation rate Koff: SPR, human IgG antibody, 25° C., HEPES buffer, fitting with BIAevaluation4.1
Method: The association rate Kon [nM/s] and the dissociation rate Koff [l/s ] of an antibody were calculated from the binding reaction curve, and also the dissociation constant Kd [nM] in the binding reaction of polypeptide 1 with a human IgG antibody was calculated.

Row | Compound | dissociation rate Koff (human IgG antibody) [s⁻¹] | other results
1 | NCCNc1nc(NCCc2ccc(O)cc2)nc(Nc2ccccc2)n1 [Comparative Example 3] | 0.00065 | alkali resistance (in words) [1]: sufficient; selectivity (in words) [2]: insufficient; temporal stability (in words) [3]: sufficient; antibody binding properties (in words) (human IgG antibody): insufficient
2 | C[C@H](NC(=O)[C@H](CC(N)=O)NC(=O)[C@H](CCC(N)=O)NC(=O)[C@H](CCC(N)=O)NC(=O)[C@H](CCC(=O)O)NC(=O)CCOCCOCCOCCOCCOCCOCCOCCOCCN)C(=O)N[C@@H](Cc1ccccc1)C(=O)N[C@@H](Cc1ccc(O)cc1)C(=O)N[C@@H](CCC(=O)O)C(=O)O [Example 24] (H-[PEG8]EQQNAFYE-OH) | 0.00013 | –
3 | CC(=O)N[C@@H](CCC(=O)O)C(=O)N[C@@H](CCC(N)=O)C(=O)N[C@@H](CCC(N)=O)C(=O)N[C@@H](CC(N)=O)C(=O)N[C@@H](C)C(=O)N[C@@H](Cc1ccccc1)C(=O)N[C@@H](Cc1ccc(O)cc1)C(=O)NCCOCCOCCOCCOCCOCCOCCOCCOCCC(=O)N[C@@H](CCCCN)C(=O)NCCOCCOCCOCCOCCOCCOCCOCCOCCC(=O)N[C@@H](CCC(=O)O)C(=O)N[C@@H](CCC(N)=O)C(=O)N[C@@H](CCC(N)=O)C(=O)N[C@@H](CC(N)=O)C(=O)N[C@@H](C)C(=O)N[C@@H](Cc1ccccc1)C(=O)N[C@@H](Cc1ccc(O)cc1)C(=O)O [Example 25, Ac-EQQNAFY-(peg)8-K-(peg)8-EQQNAFY] (Ac-EQQNAFY[PEG8]K[PEG8]EQQNAFY-OH) | 0.00019 | –
4 | Ac-EQQNAFYEILHK-OH [Example 21] | 0.00016 | –
5 | Ac-EQQNAFYK-OH [Example 20] | 0.00014 | –
6 | Ac-KKKEQQNAFYEILHKKK-OH [Example 23] | 0.00016 | –
7 | Ac-KKKEQQNAFYKKK-OH [Example 22] | 0.00015 | –
8 | Comparative Example 1: wild-type protein A (manufactured by Repligen Corporation) [reference compound] | 0.00025 | –
9 | H-DAQQSAFY-OH [Example 17] | 0.00013 | –
10 | H-DQQSAFY-OH [Example 12, DQQSAFY] | 0.00015 | –
11 | H-DQQSAFYEILH-OH [Example 13] | 0.00015 | –
12 | H-DQSAFY-OH [Example 18, DQSAFY] | 0.00019 | –
13 | H-EAQQNAFY-OH [Example 16] | 0.00019 | –
14 | H-EAQQSAFY-OH [Example 14] | 0.00014 | –
15 | H-EGQNAFY-OH [Example 5, EGQNAFY] | 0.0002 | –
16 | H-EQNAFY-OH [Example 9, EQNAFY] | 0.00017 | –
17 | H-EQQNAFY-NH2 [Example 19, EQQNAFY-NH2] | 0.00015 | –
18 | H-EQQNAFY-OH [Example 1, EQQNAFY] | 0.00017 | –
19 | H-EQQNAFYEILH-OH [Example 3] | 0.00017 | –
20 | H-EQQNAFYEILHL-OH [Example 4] | 0.00013 | –
21 | H-EQQNAFYGGGKGGGEQQNAFY-OH [Example 8] | 0.00015 | –
22 | H-EQQSAFY-OH [Example 10, EQQSAFY] | 0.00015 | –
23 | H-EQQSAFYEILH-OH [Example 11] | 0.00018 | –
24 | H-EQSAFY-OH [Example 15, EQSAFY] | 0.00014 | –
25 | H-KEQQNAFY-OH [Example 2] | 0.00013 | –
26 | H-KKKEQQNAFYEILHKKK-OH [Example 7] | 0.00016 | –
27 | H-KKKEQQNAFYKKK-OH [Example 6] | 0.00015 | –
28 | H-QQNAFYEI-OH [Comparative Example 4, reference compound] | 0.00024 | selectivity (in words) [2]: poor; antibody binding properties (in words) (human IgG antibody): poor
